In article PMC9981747, “A covalent BTK ternary complex compatible with targeted protein degradation” (Nature Communications, 2023):
Several values for one entry are separate records, joined by “and”; a condition that tells them apart may be missing. Equal values may be shown once.

Key:
Format in all cases: cell-based
BTK^FL = molecular target: T1, BTK^FL (Homo sapiens, UniProt Q06187+Q13490); assay: Expi293 time-dependent degradation of BTK^FL; conditions: 5 µM; for BTK^FL (WT) blot signal normalized to time 0: replicates
T1 construct: we used a full-length BTK (aa1-659) with a C terminal Tobacco Etch Virus protease (TEV) site; expressed in transfected cells; host or cells: Expi293 (HEK293)
Protocol: (§1) Gibco Expi293 cell line Transfection Kit (Cat.# A14524) was cultured according to the manufacturers conditions. Cells were grown at 37 °C with 5% CO2 to 4 × 10^6 cells/mL using an orbital shaker set to 95 RPM. Next cells were split to 2 × 10^6 cells/mL and transfected with plasmid DNA at a 1 µg/mL final concentration in Optimem (Gibco 31985070) using the Expifectamine 293 transfection reagent according to manufacturer’s conditions. After approximately 18 h, enhancers 1 and 2 (provided with kit). Viability was typically about 85%. When cIAP1^FL was transfected, it was detected via α-cIAP1 antibody there was typically some autoubiquitination detected, and thus often appeared as a laddered or smeared band via western blotting. When BTK^FL variants were transfected, they were detected using anti-BTK antibody (D3H5).
(§2) For covalent modification detection assays, the compound was added to Expi293 cells after enhancer treatment. At each timepoint 10 mL of cells were harvested, rapidly cooled to 4 °C in an ice bath, and centrifuged at 100 x g at 4 °C for 5 min. The pellet was washed twice with ice-cold PBS, snap-frozen in liquid nitrogen, and stored at −80 °C. Each pellet was resuspended in 0.1 mL ice-cold RIPA Buffer supplemented with 40 µM BCNC (to outcompete any remaining BCCov), protease inhibitor, and benzonase, and sonicated with 10 brief blasts at power 20. Lysate was centrifuged at 15 K x g for 20 min at 4 °C and prepared for western blotting as detailed above. When samples were evaluated for covalent adduct formation, a purification step was required. Briefly, the ~1 mL of clarified lysate was added to 9 mL of FLAG binding buffer (25 mM HEPES 7.5, 300 mM NaCl, 10% glycerol). These samples were incubated with 250 µL of anti-FLAG M2 affinity resin (Millipore-Sigma Cat. # A2220) for 3 h at 4 °C with gentle nutation. Samples were washed via gravity column filtration and eluted with 0.2 mg/ml FLAG Peptide (DYKDDDDK, CPC Scientific Peptide Company). Each sample was concentrated to 0.1 mg/mL using an Amicon Ultra-15 Centrifugal filter with a 50 kDa MWCO (Millipore-Sigma Cat. # UFC905024). Details on mass spectrometry analysis are below.

BTK^FL-C481S [1] = molecular target: T2, BTK^FL-C481S (Homo sapiens, UniProt Q06187+Q13490, C481S); assay: Expi293 dose-dependent BTK degradation (western blot), BTK^FL-C481S co-transfected with cIAP1^FL; conditions: for C481S BTK blot signal normalized to DMSO: replicates; for DC50: Expi293, cIAP1^FL co-transfected, ~18 h, 3 experiments
T2 construct: we used a full-length BTK (aa1-659) with a C terminal Tobacco Etch Virus protease (TEV) site; expressed in transfected cells; host or cells: Expi293 (HEK293)
Protocol: as §1
For dose-dependent degradation assays, cells were plated in a 24-well format and placed on a separate orbital shaker set to 115 RPM. Each well was treated with prescribed compound concentrations in the same manner as with THP-1 cells, with the exception of using Expifectamine 293 growth medium in place of RPMI 1640 complete media. After approximately 18 h post-treatment cells were harvested, centrifuged at 100 x g at 4 °C, washed twice with ice-cold PBS, and resuspended in RIPA buffer supplemented with a Roche protease inhibitor cocktail (Cat. #11873580001), and benzonase nuclease (Millipore-Sigma Cat# 70664). Each sample was incubated on ice for 30 min with periodic vortexing and centrifuged at 15 Kxg for 20 min. Clarified lysate was harvested and quantified using a Pierce BCA Assay Kit (Cat. #23225), and 20 µg of the sample was loaded into a 4–15% Criterion TGX gel (Bio-Rad, 5678085) and transferred to a nitrocellulose membrane (Life Technologies Cat. #IB23001) using an iBlot 2 (Life Technologies Cat. #IB21001). Proteins were detected using an iBind system (Life Technologies SLF2020). For BTK^T474I and BTK^T474I/C481S we inferred ligand entry into cells via the autoubiquitination and dose-dependent degradation of cIAP1^FL,[58].
Dose-dependent Degradation was analyzed using ImageJ (NIH, version 1.50i). Densiometric analysis was performed, normalized to DMSO signal, and analyzed using GraphPad Prism (Version 9.0.0 (121)). Non-linear fit one-phase decay analysis was used to obtain DC50 values. When we observed a hook effect, some points were excluded as part of the fit. In Supplementary Fig. 7B the complete curve was fit using GraphPad Prism non-linear regression bell-shaped curve where X is the concentration. However, using this method we were unable to obtain stable values for our DC50. SEM error was plotted for each point. When determining statistically significant differences, we used a two-sided student’s unpaired T-Test.

BTK^FL-C481S [2] = molecular target: T2, BTK^FL-C481S; assay: Expi293 time-dependent degradation of BTK^FL-C481S; conditions: 5 µM; for BTK^FL-C481S blot signal normalized to time 0: replicates
Protocol: as §1, §2

T1 sequence (Q06187 whole entry, the tested form may be a part): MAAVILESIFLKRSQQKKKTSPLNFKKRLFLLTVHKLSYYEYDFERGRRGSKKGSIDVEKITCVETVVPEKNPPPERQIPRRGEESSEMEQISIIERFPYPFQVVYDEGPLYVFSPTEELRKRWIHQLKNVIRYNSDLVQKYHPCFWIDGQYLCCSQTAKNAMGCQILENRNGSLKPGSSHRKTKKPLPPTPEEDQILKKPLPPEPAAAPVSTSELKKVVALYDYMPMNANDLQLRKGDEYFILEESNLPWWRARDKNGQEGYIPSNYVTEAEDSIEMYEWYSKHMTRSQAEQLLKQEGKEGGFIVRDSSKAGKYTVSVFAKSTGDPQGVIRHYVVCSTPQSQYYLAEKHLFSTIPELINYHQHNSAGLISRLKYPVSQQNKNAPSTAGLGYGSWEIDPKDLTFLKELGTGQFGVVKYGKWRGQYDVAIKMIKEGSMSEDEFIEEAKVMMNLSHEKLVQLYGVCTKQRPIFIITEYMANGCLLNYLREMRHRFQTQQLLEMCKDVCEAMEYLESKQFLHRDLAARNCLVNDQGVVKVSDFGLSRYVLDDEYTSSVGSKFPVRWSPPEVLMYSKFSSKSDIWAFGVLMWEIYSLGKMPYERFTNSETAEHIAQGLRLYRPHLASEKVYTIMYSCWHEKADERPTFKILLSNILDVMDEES
T1 sequence (Q13490 whole entry, the tested form may be a part): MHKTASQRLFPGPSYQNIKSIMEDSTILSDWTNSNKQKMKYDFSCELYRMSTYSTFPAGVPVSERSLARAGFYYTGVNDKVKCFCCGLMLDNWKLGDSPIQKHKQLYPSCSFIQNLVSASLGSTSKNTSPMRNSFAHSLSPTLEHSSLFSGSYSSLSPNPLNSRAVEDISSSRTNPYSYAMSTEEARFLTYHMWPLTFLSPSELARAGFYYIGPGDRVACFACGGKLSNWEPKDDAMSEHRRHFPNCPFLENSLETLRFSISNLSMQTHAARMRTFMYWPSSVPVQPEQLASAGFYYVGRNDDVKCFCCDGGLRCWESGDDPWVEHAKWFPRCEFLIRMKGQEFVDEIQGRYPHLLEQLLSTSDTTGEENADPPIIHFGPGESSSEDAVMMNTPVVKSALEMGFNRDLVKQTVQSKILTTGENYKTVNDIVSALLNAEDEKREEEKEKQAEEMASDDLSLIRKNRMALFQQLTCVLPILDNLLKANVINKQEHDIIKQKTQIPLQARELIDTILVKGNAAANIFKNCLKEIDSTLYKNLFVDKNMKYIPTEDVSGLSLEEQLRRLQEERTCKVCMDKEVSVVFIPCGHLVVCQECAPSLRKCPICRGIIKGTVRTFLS
T2 sequence (Q06187 whole entry C481S, the tested form may be a part): as the sequence (Q06187 whole entry, the tested form may be a part) above, with C481S counted along it
T2 sequence (Q13490 whole entry, the tested form may be a part): as the sequence (Q13490 whole entry, the tested form may be a part) above

Structure (SMILES)	BTK^FL (WT) blot signal normalized to time 0 (BTK^FL; 0.5 h)	BTK^FL (WT) blot signal normalized to time 0 (BTK^FL; 1 h)	BTK^FL (WT) blot signal normalized to time 0 (BTK^FL; 2 h)	BTK^FL (WT) blot signal normalized to time 0 (BTK^FL; 3.5 h)	BTK^FL (WT) blot signal normalized to time 0 (BTK^FL; 5.5 h)	BTK^FL (WT) blot signal normalized to time 0 (BTK^FL; 7 h)	BTK^FL (WT) blot signal normalized to time 0 (BTK^FL; 17 h)	C481S BTK blot signal normalized to DMSO (BTK^FL-C481S [1]; 0.004883 uM)	C481S BTK blot signal normalized to DMSO (BTK^FL-C481S [1]; 0.009766 uM)	C481S BTK blot signal normalized to DMSO (BTK^FL-C481S [1]; 0.019531 uM)	C481S BTK blot signal normalized to DMSO (BTK^FL-C481S [1]; 0.039063 uM)	C481S BTK blot signal normalized to DMSO (BTK^FL-C481S [1]; 0.078125 uM)	C481S BTK blot signal normalized to DMSO (BTK^FL-C481S [1]; 0.15625 uM)	C481S BTK blot signal normalized to DMSO (BTK^FL-C481S [1]; 0.3125 uM)	C481S BTK blot signal normalized to DMSO (BTK^FL-C481S [1]; 0.625 uM)	C481S BTK blot signal normalized to DMSO (BTK^FL-C481S [1]; 1.25 uM)	C481S BTK blot signal normalized to DMSO (BTK^FL-C481S [1]; 2.5 uM)	C481S BTK blot signal normalized to DMSO (BTK^FL-C481S [1]; 5 uM)	DC50 (BTK^FL-C481S [1])	BTK^FL-C481S blot signal normalized to time 0 (BTK^FL-C481S [2]; 0.5 h)	other results
CNC(C)C(=O)NC(C(=O)N1CC(NC(=O)COCCN2CCN(CCCC(=O)N3CCCC(n4nc(-c5ccc(Oc6ccccc6)cc5)c5c(N)ncnc54)C3)CC2)CC1C(=O)NC1CCCc2ccccc21)C1CCCCC1 (stereo not shown) [BCNC]	0.49 and 0.76 and 0.55	0.28 and 0.42 and 0.35	0.16 and 0.20 and 0.21	0.06 (2×) and 0.10	0.056 and 0.10 and 0.08	0.00935 and 0.01 and 0.09	0.00 and 0.02 (2×)	0.87 and 1.00 (2×)	0.89 and 0.76 and 0.79	0.87 and 0.66 and 0.82	0.76 and 0.72 and 0.87	0.63 and 0.53 and 0.56	0.51 and 0.41 and 0.42	0.35 and 0.41 and 0.28	0.26 and 0.34 and 0.16	0.27 and 0.20 and 0.13	0.21 and 0.11 and 0.057	0.21 and 0.09 and 0.0641	145 ± 58 nM	0.79 and 0.85 and 0.76	BTK^FL-C481S blot signal normalized to time 0 (BTK^FL-C481S [2]; 1 h): 0.74 and 0.81 and 0.78; BTK^FL-C481S blot signal normalized to time 0 (BTK^FL-C481S [2]; 2 h): 0.68 and 0.72 and 0.69; BTK^FL-C481S blot signal normalized to time 0 (BTK^FL-C481S [2]; 3.5 h): 0.53 and 0.64 and 0.52; BTK^FL-C481S blot signal normalized to time 0 (BTK^FL-C481S [2]; 5.5 h): 0.35 and 0.44 and 0.38; BTK^FL-C481S blot signal normalized to time 0 (BTK^FL-C481S [2]; 7 h): 0.35 and 0.32 and 0.33; BTK^FL-C481S blot signal normalized to time 0 (BTK^FL-C481S [2]; 17 h): 0.00 and 0.04 (2×)
CNC(C)C(=O)NC(C(=O)N1CC(NC(=O)COCCN2CCN(CC=CC(=O)N3CCCC(n4nc(-c5ccc(Oc6ccccc6)cc5)c5c(N)ncnc54)C3)CC2)CC1C(=O)NC1CCCc2ccccc21)C1CCCCC1 (stereo not shown) [BCCov]	0.46 and 0.65 and 0.56	0.26 and 0.42 and 0.40	0.14 and 0.25 and 0.20	0.0842 and 0.15 and 0.20	0.12 and 0.14 and 0.13	0.07 and 0.02 and 0.03	0.00 (2×) and 0.02	0.87 and 0.90 and 0.91	0.89 and 0.76 and 0.79	0.87 and 0.66 and 0.82	0.76 and 0.72 and 0.87	0.63 and 0.53 and 0.56	0.51 and 0.41 and 0.42	0.35 and 0.41 and 0.28	0.26 and 0.34 and 0.16	0.27 and 0.20 and 0.13	0.21 and 0.11 and 0.057	0.21 and 0.09 and 0.0641	122 ± 44 nM	0.75 and 0.78 and 0.82	time at which degradation reaches a plateau (BTK^FL; BTK^FL with cIAP1^FL): ≤ 7 h; time at which degradation starts (BTK^FL; BTK^FL with cIAP1^FL): 30 min; rate of BTK^FL-C481S degradation compared with BTK^FL (BTK^FL-C481S [2]): slower rate; BTK^FL-C481S blot signal normalized to time 0 (BTK^FL-C481S [2]; 1 h): 0.77 and 0.74 and 0.81; BTK^FL-C481S blot signal normalized to time 0 (BTK^FL-C481S [2]; 2 h): 0.71 and 0.76 and 0.72; BTK^FL-C481S blot signal normalized to time 0 (BTK^FL-C481S [2]; 3.5 h): 0.60 and 0.65 and 0.66; BTK^FL-C481S blot signal normalized to time 0 (BTK^FL-C481S [2]; 5.5 h): 0.58 and 0.55 and 0.61; BTK^FL-C481S blot signal normalized to time 0 (BTK^FL-C481S [2]; 7 h): 0.41 and 0.48 and 0.42; BTK^FL-C481S blot signal normalized to time 0 (BTK^FL-C481S [2]; 17 h): 0.07 (2×) and 0.02
